Experimental findings from patent publication US20100168197A1, “MUSCARINIC RECEPTOR ANTAGONISTS” (priority 2007, published 2010) are described below.

The assay concerns Guinea Pig trachea. Put plainly: In-vitro functional assay, carbachol-contracted isolated trachea. The conditions noted are these: Cavia porcellus; isolated tissue, 1 μM carbachol contraction; range stated for the group of tested compounds. On the procedure:
The contractile results are expressed as % of control E max. ED50 values are calculated by fitting a non-linear regression curve (Graph Pad Prism). pKb values are calculated by the formula pKb=−log [(molar concentration of antagonist/(dose ratio−1))]
where, dose ratio=ED50 in the presence of antagonist/ED50 in the absence of antagonist.
The Guinea Pig (400-600 gm) was procured and trachea was removed under anesthesia (sodium pentobarbital, 300 mg/kg i.p) and was immediately kept it in ice-cold Krebs Henseleit buffer. Indomethacin (10 μM) was present throughout the KH buffer to prevent the formation of bronchoactive prostanoids.
The tissue of adherent fascia was cleaned and was cut into strips of equal size (with approximately 4-5 tracheal rings in each strip). The epithelium was removed by careful rubbing, minimizing damage to the smooth muscle. […] Opposite ends of the cut rings were tied with the help of a thread. The tissue was mounted in isolated tissue baths containing 10 ml Krebs Henseleit buffer maintained at 37° C. and bubbled with carbogen, at a basal tension of 1 gm. The buffer was changed 4-5 times for about an hour. The tissue was equilibrated for 1 hour for stabilization. After 1 hour, the tissue was challenged with 1 μM carbachol. This was repeated after every 2-3 washes till two similar consecutive responses were obtained. At the end of stabilization, the tissue was washed for 30 minutes followed by incubation with suboptimal dose of MRA/Vehicle for 20 minutes prior to contraction of the tissues with 1 μM carbachol. The contractile response of tissues was recorded either on Powerlab data acquisition system or on Grass polygraph (Model 7). The relaxation was expressed as percentage of maximum carbachol response. The data was expressed as mean±s.e. mean for n observations. The EC50 was calculated as the concentration producing 50% of the maximum relaxation to 1 μM carbachol. The percent relaxation was compared between the treated and control tissues using non-parametric unpaired t-test. A p value of <0.05 was considered to be statistically significant.
In turn, `Cc1n(CCOC(=O)[C@](O)(c2ccccc2)[C@@H]2CCC(F)(F)C2)cc[n+]1C` [Compound No. 19, 1-[2-({(2R)-2-[(1R)-3,3-Difluorocyclopentyl]-2-hydroxy-2-phenylacetyl}oxy)ethyl]-2,3-dimethyl-1H-imidazol-3-ium bromide] showed a Kb of 0.1 to 3.16 nM.

Compound `Cc1n(CCCOC(=O)[C@](O)(c2ccccc2)[C@@H]2CCC(F)(F)C2)cc[n+]1C` [Compound No. 30, 1-[3-({(2R)-2-[(1R)-3,3-Difluorocyclopentyl]-2-hydroxy-2-phenylacetyl}oxy)propyl]-2,3-dimethyl-1H-imidazol-3-ium bromide] gave a Kb of 0.1 to 3.16 nM. `Cc1n(CCCOC(=O)[C@](O)(c2ccccc2)[C@@H]2CCC(F)(F)C2)cc[n+]1CCc1ccccc1` [Compound No. 29, 1-[3-({(2R)-2-[(1R)-3,3-Difluorocyclopentyl]-2-hydroxy-2-phenylacetyl}oxy)propyl]-2-methyl-3-(2-phenylethyl)-1H-imidazol-3-ium bromide] showed a Kb of 0.1 to 3.16 nM. For the compound `Cc1n(CCOC(=O)[C@](O)(c2ccccc2)[C@@H]2CCC(F)(F)C2)cc[n+]1Cc1ccccc1` [Compound No. 17, 3-Benzyl-1-[2-({(2R)-2-[(1R)-3,3-difluorocyclopentyl]-2-hydroxy-2-phenylacetyl}oxy)ethyl]-2-methyl-1H-imidazol-3-ium chloride], the Kb is 0.1 to 3.16 nM. Take `Cc1n(CCCOC(=O)[C@](O)(c2ccccc2)[C@@H]2CCC(F)(F)C2)cc[n+]1Cc1ccccc1` [Compound No. 28, 3-Benzyl-1-[3-({(2R)-2-[(1R)-3,3-difluorocyclopentyl]-2-hydroxy-2-phenylacetyl}oxy)propyl]-2-methyl-1H-imidazol-3-ium chloride]: the Kb is 0.1 to 3.16 nM.

The compound `CC[n+]1ccn(CCCOC(=O)[C@](O)(c2ccccc2)[C@@H]2CCC(F)(F)C2)c1C` [Compound No. 21, 1-[3-({(2R)-2-[(1R)-3,3-Difluorocyclopentyl]-2-hydroxy-2-phenylacetyl}oxy)propyl]-3-ethyl-2-methyl-1H-imidazol-3-ium iodide] had a Kb of 0.1 to 3.16 nM.

Compound `Cc1n(CCCOC(=O)[C@](O)(c2ccccc2)[C@@H]2CCCC(F)(F)C2)cc[n+]1Cc1ccccc1` [Compound No. 37, 3-Benzyl-1-[3-({(2R)-2-[(1R)-3,3-difluorocyclohexyl]-2-hydroxy-2-phenylacetyl}oxy)propyl]-2-methyl-1H-imidazol-3-ium chloride] showed a Kb of 0.1 to 3.16 nM. With `CCCC[n+]1ccn(CCCOC(=O)C(O)(c2cccs2)c2cccs2)c1C` [Compound No. 95, 3-Butyl-1-{3-[2-hydroxy(di-2-thienyl)acetoxy]propyl}-2-methyl-1H-imidazol-3-ium bromide] the figure was 0.1 to 3.16 nM; with `Cc1n(CCCOC(=O)[C@](O)(c2ccccc2)[C@@H]2CCC(F)(F)C2)cc[n+]1CC1CCCCC1` [Compound No. 23, 3-(Cyclohexylmethyl)-1-[3-({(2R)-2-[(1R)-3,3-difluorocyclopentyl]-2-hydroxy-2-phenylacetyl}oxy)propyl]-2-methyl-1H-imidazol-3-ium bromide], 0.1 to 3.16 nM; with `Cc1n(CCCOC(=O)C(O)(c2ccccc2)C2CCCCCC2)cc[n+]1C` (centres unmarked) [Compound No. 6, 1-(3-{[Cycloheptyl(hydroxy)phenylacetyl]oxy}propyl)-2,3-dimethyl-1H-imidazol-3-ium iodide], 0.1 to 3.16 nM. The compound `Cc1n(CCCOC(=O)[C@](O)(c2ccccc2)[C@@H]2CCC(F)(F)C2)cc[n+]1Cc1ccc(F)cc1` [Compound No. 13, 1-[3-({(2R)-2-[(1R)-3,3-Difluorocyclopentyl]-2-hydroxy-2-phenylacetyl}oxy)propyl]-3-(4-fluorobenzyl)-2-methyl-1H-imidazol-3-ium bromide] showed a Kb of 0.1 to 3.16 nM. Turning to `CCCC[n+]1ccn(CCCOC(=O)[C@](O)(c2ccccc2)[C@@H]2CCC(F)(F)C2)c1C` [Compound No. 51, 3-Butyl-1-[3-({(2R)-2-[(1R)-3,3-difluorocyclopentyl]-2-hydroxy-2-phenylacetyl}oxy)propyl]-2-methyl-1H-imidazol-3-ium bromide], the Kb is 0.1 to 3.16 nM.

Compound `Cc1n(CCCOC(=O)[C@](O)(c2ccccc2)[C@@H]2CCCC(F)(F)C2)cc[n+]1Cc1ccc(F)cc1` [Compound No. 31, 1-[3-({(2R)-2-[(1R)-3,3-Difluorocyclohexyl]-2-hydroxy-2-phenylacetyl}oxy)propyl]-3-(4-fluorobenzyl)-2-methyl-1H-imidazol-3-ium bromide] gave a Kb of 0.1 to 3.16 nM. With `Cc1n(CCCOC(=O)[C@](O)(c2ccccc2)[C@@H]2CCCC(F)(F)C2)cc[n+]1Cc1ccc(Br)cc1` [Compound No. 9, 3-(4-Bromobenzyl)-1-[3-({(2R)-2-[(1R)-3,3-difluorocyclohexyl]-2-hydroxy-2-phenylacetyl}oxy)propyl]-2-methyl-1H-imidazol-3-ium bromide], the Kb is 0.1 to 3.16 nM. As for `Cc1n(CCCOC(=O)[C@](O)(c2ccccc2)[C@@H]2CCCC(F)(F)C2)cc[n+]1C` [Compound No. 5, 1-[3-({(2R)-2-[(1R)-3,3-Difluorocyclohexyl]-2-hydroxy-2-phenylacetyl}oxy)propyl]-2,3-dimethyl-1H-imidazol-3-ium iodide], the Kb was 0.1 to 3.16 nM. Turning to `Cc1n(CCCOC(=O)[C@](O)(c2ccccc2)[C@@H]2CCC(F)(F)C2)cc[n+]1CC1CC1` [Compound No. 22, 3-(Cyclopropylmethyl)-1-[3-({(2R)-2-[(1R)-3,3-difluorocyclopentyl]-2-hydroxy-2-phenylacetyl}oxy)propyl]-2-methyl-1H-imidazol-3-ium bromide], the Kb is 0.1 to 3.16 nM. Turning to `Cc1n(CCOC(=O)[C@](O)(c2ccccc2)[C@@H]2CCC(F)(F)C2)cc[n+]1CC1CC1` [Compound No. 85, 3-(Cyclopropylmethyl)-1-[2-({(2R)-2-[(1R)-3,3-difluorocyclopentyl]-2-hydroxy-2-phenylacetyl}oxy)ethyl]-2-methyl-1H-imidazol-3-ium bromide], the Kb is 0.1 to 3.16 nM.
